Test results as given in US11572399B2, “Long-acting GIP peptide analogues” (University of Copenhagen, priority 2017, dated 2023).
Peptide text beside a SMILES is read from it. * marks the point of attachment. Palmitoyl = CCCCCCCCCCCCCCCC(=O)*

Legend:
human GIP receptor [1] = target: T1, human GIP receptor (Homo sapiens, UniProt P48546); assay: cAMP accumulation assay, agonism (ligand alone); type: cell-based; settings: COS-7 cells, Table 1; for Emax: COS-7, intrinsic cAMP activity; for EC50: read-out: cAMP agonism nM (EC50)
T1 construct: host or cells: COS-7, transient transfection (calcium phosphate), cDNA in pCMV-Script
T1 sequence (P48546 22-466): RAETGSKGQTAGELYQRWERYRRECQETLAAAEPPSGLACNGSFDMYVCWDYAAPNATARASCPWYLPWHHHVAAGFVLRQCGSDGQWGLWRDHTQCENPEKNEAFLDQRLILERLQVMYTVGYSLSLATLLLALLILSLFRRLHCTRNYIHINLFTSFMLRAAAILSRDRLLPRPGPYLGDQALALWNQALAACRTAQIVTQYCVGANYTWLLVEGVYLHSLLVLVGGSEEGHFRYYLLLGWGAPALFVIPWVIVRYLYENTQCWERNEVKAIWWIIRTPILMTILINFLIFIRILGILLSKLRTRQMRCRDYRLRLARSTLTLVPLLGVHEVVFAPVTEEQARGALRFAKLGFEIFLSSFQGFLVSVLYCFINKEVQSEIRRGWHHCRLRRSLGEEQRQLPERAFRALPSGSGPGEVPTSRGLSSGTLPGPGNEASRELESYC

human GIP receptor [2] = target: T1, human GIP receptor; assay: 125I-human GIP competition binding assay, in the presence and absence of 2% HSA; settings: for Fold change HSA (2%)/Casein (0.1%): IC50 (plus HSA)/IC50 (minus HSA);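 as to all read-outs here: nonspecific binding taken as radioligand bound to untransfected cells, IC50 obtained from nonlinear regression fits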
human GIP receptor [3] = target: T1, human GIP receptor; assay: cAMP accumulation assay, antagonism of a GIP-mediated cAMP response (50-80% of max); type: cell-based
Procedure: The day after, the cells were washed twice with Hepes buffered saline (HBS) buffer and incubated with HBS and 1 mM 3-isobutyl-1-methylxanthine (IBMX) for 30 min at 37° C. […] The HitHunter™ cAMP XS assay (DiscoveRx) was carried out according to the manufacturer's instructions.

[4] = heterologous competition binding, transiently transfected COS-7 cells expressing the human GIP receptor, read-out: Binding
[5] = binding in 0.1% casein (absence of HSA), log value, read-out: logIC50 0.1% casein (converted)
[6] = transiently transfected COS-7 cells, Table 1 and text, read-out: cAMP antagonism nM (IC50, antagonistic potency)

SMILES | Emax (human GIP receptor [1]) [%] | IC50 (human GIP receptor [2]; Table 3b, initial data, read-out: Binding IC50) [nM] | Binding fold (paired) (human GIP receptor [2]; fold decrease in affinity compared to GIP(3-30)NH2, Table 3b) [fold] | IC50 (human GIP receptor [2]; [4]) [nM] | IC50 (human GIP receptor [3]; Table 3b, initial data, read-out: cAMP - antagonisme IC50) [nM] | cAMP - antagonisme fold (paired) (human GIP receptor [3]; fold vs GIP(3-30)NH2, Table 3b) [fold] | IC50 (human GIP receptor [3]; given as log IC50 (negative sign), transiently transfected COS-7 cells, Table 1, read-out: cAMP antagonism log (converted)) [nM] | Fold change HSA (2%)/Casein (0.1%) (human GIP receptor [2]) | IC50 (human GIP receptor [2]; [5]) [nM] | Ability to antagonize the GIP-mediated cAMP response (in words) (human GIP receptor [3]) | EC50 (human GIP receptor [1]) [nM] | IC50 (human GIP receptor [3]; [6]) [nM] | Affinity compared to GIP(3-30)NH2 (in words) (human GIP receptor [2]) | Fold change in affinity, IC50 (plus HSA)/IC50 (minus HSA) (human GIP receptor [2]; presence vs absence of 2% HSA, proxy for albumin binding) [fold] | Binding (+/−HSA) Fold (human GIP receptor [2]; fold change +HSA/−HSA) | Ki (human GIP receptor [2]; presence of 2% HSA) [nM] | IC50 (human GIP receptor [3]; antagonism of GIP-mediated cAMP response, COS-7 cells, read-out: cAMP accumulation IC50) [nM] | Fold change of IC50 versus GIP(5-30)NH2 (human GIP receptor [3]; fold change of IC50 from GIP(5-30)NH2)
CCCCCCCCCCCCCCCC(=O)NCCCC[C@H](NC(=O)[C@H](CCC(=O)O)NC(=O)[C@H](CCSC)NC(=O)[C@H](C)NC(=O)[C@@H](NC(=O)[C@H](CO)NC(=O)[C@H](Cc1ccc(O)cc1)NC(=O)[C@H](CC(=O)O)NC(=O)[C@H](CO)NC(=O)[C@@H](NC(=O)[C@H](Cc1ccccc1)NC(=O)[C@@H](NC(=O)CNC(=O)[C@@H](N)CCC(=O)O)[C@@H](C)O)[C@@H](C)CC)[C@@H](C)CC)C(=O)N[C@H](C(=O)N[C@@H](C)C(=O)N[C@@H](CCC(N)=O)C(=O)N[C@@H](CCC(N)=O)C(=O)N[C@@H](CC(=O)O)C(=O)N[C@@H](Cc1ccccc1)C(=O)N[C@H](C(=O)N[C@@H](CC(N)=O)C(=O)N[C@@H](Cc1c[nH]c2ccccc12)C(=O)N[C@@H](CC(C)C)C(=O)N[C@@H](CC(C)C)C(=O)N[C@@H](C)C(=O)N[C@@H](CCC(N)=O)C(=O)N[C@@H](CCCCN)C(N)=O)C(C)C)[C@@H](C)CC [AT131, [hGIP(3-30)NH2[D15E; H18A]-C16/16]] (H-EGTFISDYSIAMEK(Palmitoyl)IAQQDFVNWLLAQK-NH2; N-terminus assumed) | 35 | 6510 | 49 | 6510 | 65 | 1.1 | 39.8 | – | – | – | – | – | – | – | – | – | – | –
CCCCCCCCCCCCCCCC(=O)N[C@H](C(=O)N[C@@H](Cc1ccccc1)C(=O)N[C@H](C(=O)N[C@@H](CO)C(=O)N[C@@H](CC(=O)O)C(=O)N[C@@H](Cc1ccc(O)cc1)C(=O)N[C@@H](CO)C(=O)N[C@H](C(=O)N[C@@H](C)C(=O)N[C@@H](CCSC)C(=O)N[C@@H](CC(=O)O)C(=O)N[C@@H](CCCNC(=N)N)C(=O)N[C@H](C(=O)N[C@@H](CCCCN)C(=O)N[C@@H](CCC(N)=O)C(=O)N[C@@H](CCC(N)=O)C(=O)N[C@@H](CC(=O)O)C(=O)N[C@@H](Cc1ccccc1)C(=O)N[C@H](C(=O)N[C@@H](CC(N)=O)C(=O)N[C@@H](Cc1c[nH]c2ccccc12)C(=O)N[C@@H](CC(C)C)C(=O)N[C@@H](CC(C)C)C(=O)N[C@@H](C)C(=O)N[C@@H](CCC(N)=O)C(=O)N[C@@H](CCCNC(=N)N)C(N)=O)C(C)C)[C@@H](C)CC)[C@@H](C)CC)[C@@H](C)CC)[C@@H](C)O [AT133, [hGIP(5-30)NH2[K16R; H18K; K30R]-C16/5]] (Palmitoyl-TFISDYSIAMDRIKQQDFVNWLLAQR-NH2) | 0 | – | – | 1720 | – | – | – | 1.3 | 1580 | failed to antagonize | – | – | – | – | – | – | – | –
CCCCCCCCCCCCCCCC(=O)NCCCC[C@H](NC(=O)[C@@H](NC(=O)[C@H](CCCNC(=N)N)NC(=O)[C@H](CC(=O)O)NC(=O)[C@H](CCSC)NC(=O)[C@H](C)NC(=O)[C@@H](NC(=O)[C@H](CO)NC(=O)[C@H](Cc1ccc(O)cc1)NC(=O)[C@H](CC(=O)O)NC(=O)[C@H](CO)NC(=O)[C@@H](NC(=O)[C@H](Cc1ccccc1)NC(=O)[C@@H](N)[C@@H](C)O)[C@@H](C)CC)[C@@H](C)CC)[C@@H](C)CC)C(=O)N[C@@H](CCC(N)=O)C(=O)N[C@@H](CCC(N)=O)C(=O)N[C@@H](CC(=O)O)C(=O)N[C@@H](Cc1ccccc1)C(=O)N[C@H](C(=O)N[C@@H](CC(N)=O)C(=O)N[C@@H](Cc1c[nH]c2ccccc12)C(=O)N[C@@H](CC(C)C)C(=O)N[C@@H](CC(C)C)C(=O)N[C@@H](C)C(=O)N[C@@H](CCC(N)=O)C(=O)N[C@@H](CCCNC(=N)N)C(N)=O)C(C)C [AT134, [hGIP(5-30)NH2[K16R; H18K; K30R]-16/18]] (H-TFISDYSIAMDRIK(Palmitoyl)QQDFVNWLLAQR-NH2; N-terminus assumed) | 11 | – | – | 882 | – | – | – | 5.5 | 794 | – | 35 | 93 | – | – | – | – | – | –
CCCCCCCCCCCCCCCC(=O)N[C@H](C(=O)N[C@@H](Cc1ccccc1)C(=O)N[C@H](C(=O)N[C@@H](CO)C(=O)N[C@@H](CC(=O)O)C(=O)N[C@@H](Cc1ccc(O)cc1)C(=O)N[C@@H](CO)C(=O)N[C@H](C(=O)N[C@@H](C)C(=O)N[C@@H](CCSC)C(=O)N[C@@H](CC(=O)O)C(=O)N[C@@H](CCCNC(=N)N)C(=O)N[C@H](C(=O)N[C@@H](Cc1c[nH]cn1)C(=O)N[C@@H](CCC(N)=O)C(=O)N[C@@H](CCC(N)=O)C(=O)N[C@@H](CC(=O)O)C(=O)N[C@@H](Cc1ccccc1)C(=O)N[C@H](C(=O)N[C@@H](CC(N)=O)C(=O)N[C@@H](Cc1c[nH]c2ccccc12)C(=O)N[C@@H](CC(C)C)C(=O)N[C@@H](CC(C)C)C(=O)N[C@@H](C)C(=O)N[C@@H](CCC(N)=O)C(=O)N[C@@H](CCCNC(=N)N)C(N)=O)C(C)C)[C@@H](C)CC)[C@@H](C)CC)[C@@H](C)CC)[C@@H](C)O [AT135, [hGIP(5-30)NH2[K16R; K30R]-C16/5]] (Palmitoyl-TFISDYSIAMDRIHQQDFVNWLLAQR-NH2) | 0 | – | – | 5940 | – | – | – | 0.2 | 6310 | failed to antagonize | – | – | – | – | – | – | – | –
CC[C@H](C)[C@H](NC(=O)[C@H](CO)NC(=O)[C@H](Cc1ccc(O)cc1)NC(=O)[C@H](CC(=O)O)NC(=O)[C@H](CO)NC(=O)[C@@H](NC(=O)[C@H](Cc1ccccc1)NC(=O)[C@@H](NC(=O)CCCCCCCCCCCCC(=O)O)[C@@H](C)O)[C@@H](C)CC)C(=O)N[C@@H](C)C(=O)N[C@@H](CCSC)C(=O)N[C@@H](CC(=O)O)C(=O)N[C@@H](CCCCN)C(=O)N[C@H](C(=O)N[C@@H](Cc1c[nH]cn1)C(=O)N[C@@H](CCC(N)=O)C(=O)N[C@@H](CCC(N)=O)C(=O)N[C@@H](CC(=O)O)C(=O)N[C@@H](Cc1ccccc1)C(=O)N[C@H](C(=O)N[C@@H](CC(N)=O)C(=O)N[C@@H](Cc1c[nH]c2ccccc12)C(=O)N[C@@H](CC(C)C)C(=O)N[C@@H](CC(C)C)C(=O)N[C@@H](C)C(=O)N[C@@H](CCC(N)=O)C(=O)N[C@@H](CCCCN)C(N)=O)C(C)C)[C@@H](C)CC [AT136, [hGIP(5-30)NH2—C14diacid/5]] | 20 | – | – | – | – | – | – | 15.7 | 50.1 | high potent antagonists | 8 | – | affinities in the same range as GIP(3-30)NH2 | 15.7 | – | – | – | –
CC[C@H](C)[C@H](NC(=O)[C@H](CO)NC(=O)[C@H](Cc1ccc(O)cc1)NC(=O)[C@H](CC(=O)O)NC(=O)[C@H](CO)NC(=O)[C@@H](NC(=O)[C@H](Cc1ccccc1)NC(=O)[C@@H](NC(=O)CCCCCCCCCCCCCCC(=O)O)[C@@H](C)O)[C@@H](C)CC)C(=O)N[C@@H](C)C(=O)N[C@@H](CCSC)C(=O)N[C@@H](CC(=O)O)C(=O)N[C@@H](CCCCN)C(=O)N[C@H](C(=O)N[C@@H](Cc1c[nH]cn1)C(=O)N[C@@H](CCC(N)=O)C(=O)N[C@@H](CCC(N)=O)C(=O)N[C@@H](CC(=O)O)C(=O)N[C@@H](Cc1ccccc1)C(=O)N[C@H](C(=O)N[C@@H](CC(N)=O)C(=O)N[C@@H](Cc1c[nH]c2ccccc12)C(=O)N[C@@H](CC(C)C)C(=O)N[C@@H](CC(C)C)C(=O)N[C@@H](C)C(=O)N[C@@H](CCC(N)=O)C(=O)N[C@@H](CCCCN)C(N)=O)C(C)C)[C@@H](C)CC [AT137, [hGIP(5-30)NH2—C16diacid/5]] | 12 | – | – | 286 | – | – | – | 1.9 | 316 | high potent antagonists | 18 | 182 | affinities in the same range as GIP(3-30)NH2 | – | 2.0 | 117 | 102 | 3.7
